According to article PMC7567501 (Journal of Enzyme Inhibition and Medicinal Chemistry, 2019):

Assays:
[1] = Fe(III) complexation, UV-vis spectrophotometric titration; format: physicochemical; settings: 25% w/w DMSO/water
Procedure: (§1) It has been largely accepted that chelators interfere both in metal-induced Aβ aggregation/neurotoxicity and on metal homeostasis of AD brains. Among the hybrids with BF hydroxyl substituent, compound 21 was chosen as a representative model to analyse the concomitant chelating capacity towards the redox-active (Fe(III), Cu(II)) and Aβ-binding (Cu(II)) metal ions. Due to solubility reasons, these studies were performed in a mixed 25% (w/w) DMSO/water medium, In fact, DMSO was chosen because it is a widely used and well tolerated solvent in biological and cellular studies, the amounts of ligand (<7 µM) and DMSO (<1%) employed in culture media being quite low with concomitant no alterations observed in cells.
(§2) The chelating ability of compound 21 towards the two metal ions under study (Fe(III) and Cu(II)) was evaluated on the basis of the global formation constants of the complexes, obtained by treatment of the UV-vis spectrophotometric data (see Table 1).
(§3) For the metal complexation studies, the aqueous iron (FeCl3, 0.0177 M) and copper (CuCl2, 0.015 M) stock solutions were prepared from 1000 ppm standards (Titrisol) and their metal content was evaluated by atomic absorption. To prevent hydrolysis, the iron stock solution was prepared in excess of acid chloride and its exact concentration in HCl determined by the usual standard-addition method using 0.1 M HCl (Titrisol). The 0.1 M HCl solution, used in spectrophotometric titrations, was prepared from a Titrisol ampoule while the titrant was from carbonate free commercial concentrate (Titrisol, KOH 0.1 M ampoules). The KOH solution was standardised by titration with a solution of potassium hydrogen phthalate and was discarded whenever the percentage of carbonate, determined by Gran’s method, was greater than 0.5% of the total amount of base.
(§4) The electronic spectra and the AChE inhibition assays were performed in a 1-cm path length quartz cell with a Perkin Elmer Lambda 35 spectrophotometer equipped with a temperature programmer PTP1 + 1 Peltier System (T = 25.0 ± 0.1 °C). The enzyme AChE 500 U, extracted from Electrophorus electricus (electric eel), was purchased from Sigma-Aldrich.

[2] = target: T1, Aβ1-42 (Homo sapiens, UniProt P05067); experiment: TEM imaging of Aβ aggregation inhibition; settings: compound 50 μM, 37 °C, 24 h, pH 6.6
T1 construct: Amyloid β-peptide (1–42), Aβ1-42, was purchased from GeneCust; purchased GeneCust
Procedure: Nevertheless, since quantitative analysis based on fluorescence of copper(II) containing solutions may result in somehow erroneous conclusions due to some potential emission quenching by this paramagnetic ion, a fluorescence-independent study by transmission electron microscopy (TEM) was also performed for compound 21. […] Overall, TEM confirms the role of the ligand in the inhibition of Aβ aggregation.
Figure 6. TEM images of Aβ aggregation inhibition performed with samples incubated (37 °C) for 24 h. Experimental conditions: [Aβ1–42] = [CuCl2] = 25 μM; [21] = 50 μM; pH = 6.6.
For the study of the β-amyloid (Aβ) aggregation, the ThT fluorescence assay was performed using a Varian Cary Eclipse fluorimeter at the following wavelengths: excitation (446 nm) and emission (485 nm). Amyloid β-peptide (1–42), Aβ1-42, was purchased from GeneCust as a lyophilised powder stored at −20 °C. TEM assays were performed with a Hitachi H8100 transmission electron microscope with a LaB6 filament (200 kV, 10000–20000 × magnification) at MicroLab/IST.
The Transmission Electron Microscopy (TEM) is a high resolution technique used to study biological or inorganic samples at 2–3 nm level, through black and white high-quality images. The compound 21 was selected among those with better anti-Aβ aggregation assay. […]

[3] = Cu(II) complexation, UV-vis spectrophotometric titration; format: physicochemical; settings: 25% w/w DMSO/water
Procedure: as §1, §2, §3, §4

[4] = pH 7.4, CL/CM = 10, CM = 10^−6 M

T1 sequence (P05067 672-713 limits assumed): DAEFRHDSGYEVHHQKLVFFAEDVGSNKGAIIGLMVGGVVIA

Question: What does the source list for `O=C(NCCCNc1c2c(nc3ccccc13)CCCC2)c1cc2cccc(O)c2o1` [Compound 21, 7-Hydroxy-N-(3-((1,2,3,4-tetrahydroacridin-9-yl)amino)propyl)benzofuran-2-carboxamide]?
Answer: log βFemHhLl, species (1–22) ([1]; T = 25.0 °C, I = 0.1 M KCl): 12.21(8); log βFemHhLl, species (103) ([1]; T = 25.0 °C, I = 0.1 M KCl): 36.95(7); log βFemHhLl, species (111) ([1]; T = 25.0 °C, I = 0.1 M KCl): 22.90(6); log βFemHhLl, species (112) ([1]; T = 25.0 °C, I = 0.1 M KCl): 38.37(6); pM (pFe) = −log[M] [1, 4]: 22.2; TEM morphology of Aβ42 aggregates, self-induced ([2]; [Aβ1–42] = 25 μM, no copper): the aggregates became sparser and more elongated; TEM morphology of Aβ42 aggregates in presence of copper ([2]; [Aβ1–42] = [CuCl2] = 25 μM): formation of homogenous low molecular aggregates; log βCumHhLl, species (1–11) ([3]; T = 25.0 °C, I = 0.1 M KCl): 2.25(3); log βCumHhLl, species (101) ([3]; T = 25.0 °C, I = 0.1 M KCl): 10.87(6); log βCumHhLl, species (102) ([3]; T = 25.0 °C, I = 0.1 M KCl): 20.68(8); log βCumHhLl, species (111) ([3]; T = 25.0 °C, I = 0.1 M KCl): 19.02(2); pM (pCu) = −log[M] [3, 4]: 11.9
